# Results reported in patent publication US20180184655A1 (priority 2011, published 2018).
# Tested on: Phytophthora infestans
# Assay type: in vivo, Phytophthora infestans on Potato
# Conditions: Potato field trial, France 2010, 6 foliar sprays, fluopicolide 75 g a.s./ha, cyazofamid 60 g a.s./ha, adjuvant 150 ml/ha
structure (smiles),measurement,setting,value
"O=C(NCc1ncc(C(F)(F)F)cc1Cl)c1c(Cl)cccc1Cl [Fluopicolide, 2,6-dichloro-N-[3-chloro-5-(trifluoromethyl)-2-pyridylmethyl]benzamide]",Efficacy (Abbott values),29 days after last application,18.3%
same,Late blight severity on leaves,"assessed 29 days after last application, mean values, untreated reference 100%",81.7%
